In patent US12281149B2, “Modulators of G-protein coupled receptors” (priority 2021, dated 2025):
*1 amine or outer side, *2 acyl side, *3 side chain or, on linkers, in order; H or OH if unused. Where a SMILES comes first, the peptide text is derived from it. Side-chain parts run from the residue outwards. [ ]: non-standard residue; d: D form. The star is where a group is joined. Isobutyryl(2-(3-CN-5-F-Ph)) = CC(C)(C(=O)*)c1cc(F)cc(C#N)c1; C20 diacid = O=C(O)CCCCCCCCCCCCCCCCCCC(=O)*; C18 diacid = O=C(O)CCCCCCCCCCCCCCCCC(=O)*; γGlu = O=C(O)[C@H](CCC(=O)[*:2])N[*:1]; X14 = CC(C)(C(=O)*)n1cc(Br)cn1; X30 = CC(C)(C(=O)*)c1ccc(F)cc1; AEEA = NCCOCCOCC(=O)O; Aib = CC(C)(N)C(=O)O; βAla = NCCC(=O)O

Legend:
Type in all cases: cell-based
[1] = biological target: T1, GIP receptor (Homo sapiens, UniProt P48546); assay: PathHunter β-arrestin assay, GIP receptor; set-up: host or cells: PathHunter CHO-K1 GIPR β-Arrestin Cell Line; conditions: β-arrestin-2 recruitment, PathHunter CHO-K1 GIPR β-Arrestin Cell Line, 90 min at 37° C.; normalized to GIP; read-out: GIPR β Arrestin EC50
T1 sequence (P48546 22-466): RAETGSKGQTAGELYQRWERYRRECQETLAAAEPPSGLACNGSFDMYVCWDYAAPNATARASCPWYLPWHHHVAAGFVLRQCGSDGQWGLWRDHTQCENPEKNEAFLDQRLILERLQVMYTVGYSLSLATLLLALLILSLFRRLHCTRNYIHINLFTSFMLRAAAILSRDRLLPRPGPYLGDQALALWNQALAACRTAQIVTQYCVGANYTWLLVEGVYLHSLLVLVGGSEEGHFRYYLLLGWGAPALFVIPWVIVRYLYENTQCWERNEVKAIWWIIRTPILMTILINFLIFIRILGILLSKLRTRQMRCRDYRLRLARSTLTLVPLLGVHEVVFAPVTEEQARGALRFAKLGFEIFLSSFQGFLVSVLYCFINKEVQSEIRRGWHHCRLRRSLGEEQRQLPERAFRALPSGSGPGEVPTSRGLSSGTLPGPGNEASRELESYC

[2] = biological target: T2, GLP-1 receptor (Homo sapiens, UniProt P43220); assay: PathHunter β-arrestin assay, GLP-1 receptor; set-up: host or cells: PathHunter CHO-K1 GLP1R β-Arrestin Cell Line; conditions: β-arrestin-2 recruitment, PathHunter CHO-K1 GLP1R β-Arrestin Cell Line, 90 min at 37° C.; normalized to GLP-1; read-out: GLP-1R β Arrestin EC50
[3] = biological target: T1, GIP receptor; assay: HitHunter cAMP assay, GIP receptor; conditions: for EC50: CHO cells stably expressing GIP receptor, cAMP accumulation, 30 min, read-out: EC50 GIP-1R; for Emax: CHO cells, cAMP, normalized to maximum signal from GIP (high) and DMSO (low), read-out: Emax GIP-1R
[4] = biological target: T2, GLP-1 receptor; assay: HitHunter cAMP assay, GLP-1 receptor; conditions: for EC50: CHO cells stably expressing human GLP-1 receptor, cAMP accumulation, 30 min, read-out: EC50 GLP-1R; for Emax: CHO cells, cAMP, normalized to maximum signal from GLP-1 (high) and DMSO (low), read-out: Emax GLP-1R

T2 sequence (P43220 24-463): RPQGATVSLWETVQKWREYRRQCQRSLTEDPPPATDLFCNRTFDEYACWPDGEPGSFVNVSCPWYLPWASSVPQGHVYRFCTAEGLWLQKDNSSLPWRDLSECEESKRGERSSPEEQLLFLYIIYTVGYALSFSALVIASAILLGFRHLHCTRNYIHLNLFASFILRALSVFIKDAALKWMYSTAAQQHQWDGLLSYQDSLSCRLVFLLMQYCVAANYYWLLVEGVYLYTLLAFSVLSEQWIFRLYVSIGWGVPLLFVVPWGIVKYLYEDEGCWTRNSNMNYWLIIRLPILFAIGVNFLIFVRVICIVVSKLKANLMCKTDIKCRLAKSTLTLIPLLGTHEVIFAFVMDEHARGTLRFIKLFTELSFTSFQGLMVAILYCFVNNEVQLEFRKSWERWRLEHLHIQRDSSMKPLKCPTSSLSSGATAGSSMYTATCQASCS

Compound	EC50 [1] [µM]	EC50 [2] [µM]	EC50 [3] [µM]	Emax [3] [%]	EC50 [4] [µM]	Emax [4] [%]
CC[C@H](C)[C@H](NC(=O)[C@H](CCCCN)NC(=O)[C@H](CC(=O)O)NC(=O)[C@H](CC(C)C)NC(=O)[C@H](Cc1ccc(O)cc1)NC(=O)[C@@H](NC(=O)[C@H](CO)NC(=O)[C@H](Cc1ccc(O)cc1)NC(=O)[C@H](CC(=O)O)NC(=O)[C@H](CO)NC(=O)[C@@H](NC(=O)[C@H](Cc1ccccc1)NC(=O)[C@@H](NC(=O)CNC(=O)[C@H](CCC(=O)O)NC(=O)CCNC(=O)C(C)(C)c1cc(F)cc(C#N)c1)[C@@H](C)O)[C@@H](C)O)[C@@H](C)CC)C(=O)N[C@@H](C)C(=O)N[C@@H](CCC(N)=O)C(=O)N[C@@H](CCCCNC(=O)COCCOCCNC(=O)COCCOCCNC(=O)CC[C@H](NC(=O)CCCCCCCCCCCCCCCCCCC(=O)O)C(=O)O)C(=O)N[C@@H](C)C(=O)N[C@@H](Cc1ccccc1)C(=O)N[C@H](C(=O)N[C@@H](CCC(N)=O)C(=O)N[C@@H](Cc1c[nH]c2ccccc12)C(=O)N[C@@H](CC(C)C)C(=O)N[C@H](C(=O)N[C@@H](C)C(=O)NCC(=O)NCC(=O)N1CCC[C@H]1C(=O)N[C@@H](CO)C(=O)N[C@@H](CO)C(=O)NCC(=O)N[C@@H](C)C(=O)N1CCC[C@H]1C(=O)N1CCC[C@H]1C(=O)N1CCC[C@H]1C(=O)N[C@@H](CO)C(N)=O)[C@@H](C)CC)C(C)C [Compound 189] ({Isobutyryl(2-(3-CN-5-F-Ph))-βAla}-EGTFTSDYSIYLDKIAQK([AEEA-AEEA-γGlu-C20 diacid])AFVQWLIAGGPSSGAPPPS-NH2)	> 1	> 1	0.01 to 0.1	93	0.0001 to 0.001	95
CC[C@H](C)[C@H](NC(=O)[C@H](CC(C)C)NC(=O)[C@H](Cc1c[nH]c2ccccc12)NC(=O)[C@H](CCC(N)=O)NC(=O)[C@@H](NC(=O)[C@H](Cc1ccccc1)NC(=O)[C@H](C)NC(=O)[C@H](CCCCNC(=O)COCCOCCNC(=O)COCCOCCNC(=O)CC[C@H](NC(=O)CCCCCCCCCCCCCCCCCCC(=O)O)C(=O)O)NC(=O)[C@H](CCC(N)=O)NC(=O)[C@H](C)NC(=O)[C@@H](NC(=O)[C@H](CCCCN)NC(=O)[C@H](CC(=O)O)NC(=O)[C@H](CC(C)C)NC(=O)C(C)(C)NC(=O)[C@@H](NC(=O)[C@H](CO)NC(=O)[C@H](Cc1ccc(O)cc1)NC(=O)[C@H](CC(=O)O)NC(=O)[C@H](CO)NC(=O)[C@@H](NC(=O)[C@H](Cc1ccccc1)NC(=O)[C@@H](NC(=O)CNC(=O)[C@H](CCC(=O)O)NC(=O)CCNC(=O)C(C)(C)c1ccc(F)cc1)[C@@H](C)O)[C@@H](C)O)[C@@H](C)CC)[C@@H](C)CC)C(C)C)C(=O)N[C@@H](C)C(=O)NCC(=O)NCC(=O)N1CCC[C@H]1C(=O)N[C@@H](CO)C(=O)N[C@@H](CO)C(=O)NCC(=O)N[C@@H](C)C(=O)N1CCC[C@H]1C(=O)N1CCC[C@H]1C(=O)N1CCC[C@H]1C(=O)N[C@@H](CO)C(N)=O [Compound 210] ({X30-βAla}-EGTFTSDYSI[Aib]LDKIAQK([AEEA-AEEA-γGlu-C20 diacid])AFVQWLIAGGPSSGAPPPS-NH2)	> 1	> 1	0.001 to 0.01	101	0.0001 to 0.001	104
CC[C@H](C)[C@H](NC(=O)[C@H](CC(C)C)NC(=O)[C@H](Cc1c[nH]c2ccccc12)NC(=O)[C@H](CCC(N)=O)NC(=O)[C@@H](NC(=O)[C@H](Cc1ccccc1)NC(=O)[C@H](C)NC(=O)[C@H](CCCCNC(=O)COCCOCCNC(=O)COCCOCCNC(=O)CC[C@H](NC(=O)CCCCCCCCCCCCCCCCC(=O)O)C(=O)O)NC(=O)[C@H](CCC(N)=O)NC(=O)[C@H](C)NC(=O)[C@@H](NC(=O)[C@H](CCCCN)NC(=O)[C@H](CC(=O)O)NC(=O)[C@H](CC(C)C)NC(=O)C(C)(C)NC(=O)[C@@H](NC(=O)[C@H](CO)NC(=O)[C@H](Cc1ccc(O)cc1)NC(=O)[C@H](CC(=O)O)NC(=O)[C@H](CO)NC(=O)[C@@H](NC(=O)[C@H](Cc1ccccc1)NC(=O)[C@@H](NC(=O)CNC(=O)[C@H](CCC(=O)O)NC(=O)CCNC(=O)C(C)(C)c1cc(F)cc(C#N)c1)[C@@H](C)O)[C@@H](C)O)[C@@H](C)CC)[C@@H](C)CC)C(C)C)C(=O)N[C@@H](C)C(=O)NCC(=O)NCC(=O)N1CCC[C@H]1C(=O)N[C@@H](CO)C(=O)N[C@@H](CO)C(=O)NCC(=O)N[C@@H](C)C(=O)N1CCC[C@H]1C(=O)N1CCC[C@H]1C(=O)N1CCC[C@H]1C(=O)N[C@@H](CO)C(N)=O [Compound 106] ({Isobutyryl(2-(3-CN-5-F-Ph))-βAla}-EGTFTSDYSI[Aib]LDKIAQK([AEEA-AEEA-γGlu-C18 diacid])AFVQWLIAGGPSSGAPPPS-NH2)	> 1	> 1	0.01 to 0.1	98	0.0001 to 0.001	97
CC[C@H](C)[C@H](NC(=O)[C@H](CO)NC(=O)[C@H](CCCCNC(=O)COCCOCCNC(=O)COCCOCCNC(=O)CC[C@H](NC(=O)CCCCCCCCCCCCCCCCCCC(=O)O)C(=O)O)NC(=O)[C@H](CC(=O)O)NC(=O)[C@H](CO)NC(=O)[C@@H](NC(=O)[C@H](Cc1ccccc1)NC(=O)[C@@H](NC(=O)CNC(=O)[C@H](CCC(=O)O)NC(=O)CCNC(=O)[C@@]1(c2ccccc2)CNC(=O)C1)[C@@H](C)O)[C@@H](C)O)C(=O)N[C@@H](Cc1ccc(O)cc1)C(=O)N[C@@H](CC(C)C)C(=O)N[C@@H](CC(=O)O)C(=O)N[C@@H](CCCCN)C(=O)N[C@@H](CCC(N)=O)C(=O)N[C@@H](C)C(=O)N[C@@H](C)C(=O)NC(C)(C)C(=O)N[C@@H](CCC(=O)O)C(=O)N[C@@H](Cc1ccccc1)C(=O)N[C@H](C(=O)N[C@@H](CC(N)=O)C(=O)N[C@@H](Cc1c[nH]c2ccccc12)C(=O)N[C@@H](CC(C)C)C(=O)N[C@@H](CC(C)C)C(=O)N[C@@H](C)C(=O)NCC(=O)NCC(=O)N1CCC[C@H]1C(=O)N[C@@H](CO)C(=O)N[C@@H](CO)C(=O)NCC(=O)N[C@@H](C)C(=O)N1CCC[C@H]1C(=O)N1CCC[C@H]1C(=O)N1CCC[C@H]1C(=O)N[C@@H](CO)C(N)=O)C(C)C (single isomer, unassigned) [Compound 123]	> 1	> 1	0.01 to 0.1	103	0.01 to 0.1	95
CC[C@H](C)[C@H](NC(=O)[C@H](CC(C)C)NC(=O)[C@H](Cc1c[nH]c2ccccc12)NC(=O)[C@H](CCC(N)=O)NC(=O)[C@@H](NC(=O)[C@H](Cc1ccccc1)NC(=O)[C@H](C)NC(=O)[C@H](CCCCNC(=O)COCCOCCNC(=O)COCCOCCNC(=O)CC[C@H](NC(=O)CCCCCCCCCCCCCCCCCCC(=O)O)C(=O)O)NC(=O)[C@H](CCC(N)=O)NC(=O)[C@H](C)NC(=O)[C@@H](NC(=O)[C@H](CCCCN)NC(=O)[C@H](CC(=O)O)NC(=O)[C@H](CC(C)C)NC(=O)C(C)(C)NC(=O)[C@@H](NC(=O)[C@H](CO)NC(=O)[C@H](Cc1ccc(O)cc1)NC(=O)[C@H](CC(=O)O)NC(=O)[C@H](CO)NC(=O)[C@@H](NC(=O)[C@H](Cc1ccccc1)NC(=O)[C@@H](NC(=O)CNC(=O)[C@H](CCC(=O)O)NC(=O)CCNC(=O)C(C)(C)n1cc(Br)cn1)[C@@H](C)O)[C@@H](C)O)[C@@H](C)CC)[C@@H](C)CC)C(C)C)C(=O)N[C@@H](C)C(=O)NCC(=O)NCC(=O)N1CCC[C@H]1C(=O)N[C@@H](CO)C(=O)N[C@@H](CO)C(=O)NCC(=O)N[C@@H](C)C(=O)N1CCC[C@H]1C(=O)N1CCC[C@H]1C(=O)N1CCC[C@H]1C(=O)N[C@@H](CO)C(N)=O [Compound 131] ({X14-βAla}-EGTFTSDYSI[Aib]LDKIAQK([AEEA-AEEA-γGlu-C20 diacid])AFVQWLIAGGPSSGAPPPS-NH2)	> 1	> 1	0.01 to 0.1	96	0.0001 to 0.001	102
